Data: paper PMC4666645 (PLoS Pathogens, 2015)
Values joined by “and” are separate entries in the source; they are usually repeats but may differ in a detail not shown here. Equal entries are not always repeated. Structures can show the parent of a compound that is named as a salt.

How the values were obtained:
[1] = target: Hco-L-AChR-1 (Hco-UNC-38, Hco-UNC-63, Hco-UNC-29.1, Hco-ACR-8) (Haemonchus contortus, UniProt A9XX24+D6MYE9+D6MYF3+D6MYF4); test: Two-electrode voltage-clamp on Xenopus oocytes expressing Hco-L-AChR-1; format: cell-based; details: for Response to agonist: 100 μM agonist
Chain of Hco-L-AChR-1 (Hco-UNC-38, Hco-UNC-63, Hco-UNC-29.1, Hco-ACR-8) (D6MYF3 20-512): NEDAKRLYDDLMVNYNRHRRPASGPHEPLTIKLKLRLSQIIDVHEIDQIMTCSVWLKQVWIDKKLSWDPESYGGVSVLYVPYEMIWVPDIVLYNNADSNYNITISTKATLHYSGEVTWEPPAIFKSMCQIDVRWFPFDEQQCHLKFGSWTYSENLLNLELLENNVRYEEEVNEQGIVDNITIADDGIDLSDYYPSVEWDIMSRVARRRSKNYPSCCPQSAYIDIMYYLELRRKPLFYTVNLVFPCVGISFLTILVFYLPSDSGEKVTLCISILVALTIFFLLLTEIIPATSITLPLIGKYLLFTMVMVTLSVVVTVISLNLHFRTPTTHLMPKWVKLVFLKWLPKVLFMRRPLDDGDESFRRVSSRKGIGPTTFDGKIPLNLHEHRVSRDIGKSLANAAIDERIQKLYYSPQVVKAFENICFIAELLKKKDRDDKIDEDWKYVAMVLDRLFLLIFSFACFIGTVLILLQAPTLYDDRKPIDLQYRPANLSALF
Chain of Hco-L-AChR-1 (Hco-UNC-38, Hco-UNC-63, Hco-UNC-29.1, Hco-ACR-8) (D6MYF4 22-504): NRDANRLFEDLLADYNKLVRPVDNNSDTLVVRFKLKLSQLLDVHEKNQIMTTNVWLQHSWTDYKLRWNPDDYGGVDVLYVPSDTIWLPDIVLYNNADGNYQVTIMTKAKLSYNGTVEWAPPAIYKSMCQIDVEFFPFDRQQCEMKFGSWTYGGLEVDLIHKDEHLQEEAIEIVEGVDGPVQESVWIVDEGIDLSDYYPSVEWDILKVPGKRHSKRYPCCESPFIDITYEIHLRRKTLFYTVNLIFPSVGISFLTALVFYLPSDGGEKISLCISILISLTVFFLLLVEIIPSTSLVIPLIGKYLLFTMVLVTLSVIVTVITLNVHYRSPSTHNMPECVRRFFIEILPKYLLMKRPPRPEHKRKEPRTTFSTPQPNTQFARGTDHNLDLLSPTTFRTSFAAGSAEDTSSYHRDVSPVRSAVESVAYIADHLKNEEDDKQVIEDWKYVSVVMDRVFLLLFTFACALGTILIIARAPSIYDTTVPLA
Chain of Hco-L-AChR-1 (Hco-UNC-38, Hco-UNC-63, Hco-UNC-29.1, Hco-ACR-8) (D6MYE9 21-498): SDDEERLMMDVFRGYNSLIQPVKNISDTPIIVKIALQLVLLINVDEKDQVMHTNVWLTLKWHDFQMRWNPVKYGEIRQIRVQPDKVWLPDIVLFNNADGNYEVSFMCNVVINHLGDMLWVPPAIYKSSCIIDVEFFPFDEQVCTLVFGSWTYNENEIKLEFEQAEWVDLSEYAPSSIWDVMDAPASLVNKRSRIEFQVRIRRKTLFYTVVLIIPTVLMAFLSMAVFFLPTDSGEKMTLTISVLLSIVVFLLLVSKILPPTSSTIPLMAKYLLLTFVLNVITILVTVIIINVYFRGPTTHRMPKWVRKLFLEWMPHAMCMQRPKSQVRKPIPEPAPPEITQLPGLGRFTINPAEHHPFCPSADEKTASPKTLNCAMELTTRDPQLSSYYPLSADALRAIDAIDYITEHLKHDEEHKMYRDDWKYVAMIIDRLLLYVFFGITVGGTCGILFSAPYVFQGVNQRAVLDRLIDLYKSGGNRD
Chain of Hco-L-AChR-1 (Hco-UNC-38, Hco-UNC-63, Hco-UNC-29.1, Hco-ACR-8) (A9XX24 19-536): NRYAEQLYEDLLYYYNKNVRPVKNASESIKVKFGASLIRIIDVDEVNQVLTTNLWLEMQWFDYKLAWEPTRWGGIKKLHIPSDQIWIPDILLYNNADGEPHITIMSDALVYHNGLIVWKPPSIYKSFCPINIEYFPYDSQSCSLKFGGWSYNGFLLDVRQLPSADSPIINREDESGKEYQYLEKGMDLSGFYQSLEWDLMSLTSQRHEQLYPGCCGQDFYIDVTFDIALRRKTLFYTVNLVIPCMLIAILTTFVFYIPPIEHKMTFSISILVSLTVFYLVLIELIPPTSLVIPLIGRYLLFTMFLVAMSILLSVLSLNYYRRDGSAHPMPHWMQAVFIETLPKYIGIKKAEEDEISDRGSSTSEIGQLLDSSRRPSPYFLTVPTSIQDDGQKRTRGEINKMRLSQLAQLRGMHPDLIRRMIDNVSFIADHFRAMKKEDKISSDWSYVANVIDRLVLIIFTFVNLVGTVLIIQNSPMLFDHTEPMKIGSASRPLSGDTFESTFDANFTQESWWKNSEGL
Description: (§1) H. contortus and P. equorum acr-26 and acr-27 cDNAs were PCR-amplified using primers containing a restriction site in order to be sub-cloned into the expression vector pTB207 that is suitable for in vitro transcription. Primers are listed in S3 Table. The resulting plasmids were linearized with the NheI restriction enzyme (Fermantas) and used as templates for cRNA synthesis using the T7 mMessage mMachine kit (Ambion). Xenopus laevis ovaries were obtained from the University of Rennes, France (CRB Xenope) and defolliculated using 2 mg/ml collagenase type II (Gibco) in the incubation solution containing: 100 mM NaCl, 2 mM KCl, 1.8 mM CaCl2.2H2O, 1 mM MgCl2.6H2O, 5 mM HEPES, 2.5 mM C3H3NaO3, pH 7.5, supplemented with penicillin 100 U/mL and streptomycin 100 μg/mL). The oocytes were injected in the animal pole with a total volume of 36 nL of cRNA mix containing 50 ng/μL of each cRNA in RNase-free water using the Drummond nanoject II microinjector. Microinjected oocytes were kept at 20°C in incubation medium for 4 days to allow the receptors expression. Two-electrode voltage-clamp recordings were carried out using an Oocyte Clamp OC-725C amplifier (Warner instrument) in oocytes being voltage-clamped at -60mV. All agonist preparations were prepared with recording buffer (100 mM NaCl, 2.5 mM KCl, 1 mM CaCl2.2H2O, 5 mM HEPES, pH 7.3). Currents were recorded and analyzed using the pCLAMP 10.4 package (Molecular Devices).
Supplementary file ppat.1005267.s003.tif: S3 Fig Pharmacological profiles of Hco-L-AChR-1 and Hco-L-AChR-2. […] The bars indicate the time period of the agonist application. Functional expression of Hco-L-AChR-1 requires the co-expression of Hco-UNC-38; Hco-UNC-63; Hco-UNC-29.1 and Hco-ACR-8 AChR subunits with the ancillary proteins Hco-RIC-3.1; Hco-UNC-50 and Hco-UNC-74 whereas Hco-L-AChR-2 requires the co-expression of Hco-UNC-38; Hco-UNC-63 and Hco-UNC-29.1 AChR subunits with the ancillary proteins Hco-RIC-3.1; Hco-UNC-50 and Hco-UNC-74. (C) Scatter plot (mean ± SEM) of normalized currents elicited by 100 μM Mor on Hco-26/27, Hco-L-AChR-1 and Hco-L-AChR-2. Currents have been normalized to and compared with 100 μM ACh elicited currents. Paired Student’s t-test, ***p<0.001. (D) Dose-response relationships of Hco-L-AChR-1 (black circle, n = 7) and Hco-L-AChR-2 (blue squares, n = 9) for Mor. Responses are normalized to 300 μM ACh elicited currents as described in Boulin et al.. […] (TIF) Click here for additional data file.

Peq-26/27 receptor = Peq-26/27 receptor (Parascaris equorum, UniProt A0A0U2ES47+A0A0U2ES58); test: cell-based; details: for Emax at 100 µM: read-out: Current elicited, % of ACh response
Chain of Peq-26/27 receptor (A0A0U2ES58 entry or part of it): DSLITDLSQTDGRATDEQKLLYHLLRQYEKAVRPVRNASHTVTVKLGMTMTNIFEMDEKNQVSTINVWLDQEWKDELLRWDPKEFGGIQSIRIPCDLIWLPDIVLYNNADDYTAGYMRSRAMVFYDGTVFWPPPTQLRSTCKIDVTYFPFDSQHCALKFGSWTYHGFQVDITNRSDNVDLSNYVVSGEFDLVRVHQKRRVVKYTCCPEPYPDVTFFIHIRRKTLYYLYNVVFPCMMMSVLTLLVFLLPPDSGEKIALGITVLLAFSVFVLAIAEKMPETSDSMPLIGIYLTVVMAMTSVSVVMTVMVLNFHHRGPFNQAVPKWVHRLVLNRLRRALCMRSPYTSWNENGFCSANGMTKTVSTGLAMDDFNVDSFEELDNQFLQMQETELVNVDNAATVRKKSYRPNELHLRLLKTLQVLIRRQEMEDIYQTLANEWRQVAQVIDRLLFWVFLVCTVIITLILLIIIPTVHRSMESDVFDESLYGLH
Chain of Peq-26/27 receptor (A0A0U2ES47 entry or part of it): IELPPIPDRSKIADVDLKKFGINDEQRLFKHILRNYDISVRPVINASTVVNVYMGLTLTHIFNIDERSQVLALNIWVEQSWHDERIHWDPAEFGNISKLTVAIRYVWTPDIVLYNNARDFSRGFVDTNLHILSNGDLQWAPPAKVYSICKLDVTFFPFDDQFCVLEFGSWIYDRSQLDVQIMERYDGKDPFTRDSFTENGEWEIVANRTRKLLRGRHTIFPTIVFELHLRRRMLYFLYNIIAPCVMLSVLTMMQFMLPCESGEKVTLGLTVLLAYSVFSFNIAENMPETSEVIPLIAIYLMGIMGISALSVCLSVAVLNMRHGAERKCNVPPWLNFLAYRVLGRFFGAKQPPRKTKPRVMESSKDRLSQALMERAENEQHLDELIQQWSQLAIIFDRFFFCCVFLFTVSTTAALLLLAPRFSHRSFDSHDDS
Method: In order to determine if ACR-26 and ACR-27 subunits from other parasitic nematodes species could also form functional receptors when expressed in Xenopus oocyte, Peq-acr-26 and Peq-acr-27 cRNAs from the distantly related P. equorum (Clade III) were co-injected in combination with Hco-ric-3.1, Hco-unc-74 and Hco-unc-50 cRNAs. Four days after injection, we observed robust expression of a functional AChR responding to 100 μM ACh (Fig 6B). […] This novel heteropentameric AChR was named Peq-26/27.
as §1

| Compound | Response to agonist [1] | EC50 (Peq-26/27 receptor; EC50, responses normalized to 1 mM ACh) | Emax at 100 µM (Peq-26/27 receptor) | Concentrations with potential channel-block effect [1] | EC50 [1] |
| --- | --- | --- | --- | --- | --- |
| c1ccc([C@H]2CN3CCSC3=N2)cc1 [Lev, (-)-tetramisole hydrochloride] | very responsive | 16.7 µM and 17 µM | 24.5 ± 2.4% | – | – |
| Cc1ccsc1/C=C/C1=NCCCN1C [Mor, morantel] | weak response | – | 74.5 ± 4.9% | above 30 μM | 410 ± 230 nM |
| CN1CCCN=C1/C=C/c1cccs1 [Pyr, pyrantel] | – | – | 21.8 ± 2.1% | – | – |
